Where no end group is shown, it is not given here.

Results on nine sequences are retold here after patent US9789181B2, “PAN-DR binding polypeptides and uses thereof” (Epimmune Inc., priority 2009, dated 2017).

For one test, the target named is HLA DRB1 *0101 (Homo sapiens, UniProt P01903+P01911, A100R/D57E/F55L/F60I/F76Y/I96L/L162R/M171V/P40L/Q125E/R42F/V115G/Y59C). Kind of test: IC50nM to purified HLA | DRB1 *0101. The protocol: (§1) Table printed on a drawing sheet, FIG. 1 (contd.)
Head of the field: IC50nM to purified HLA | DRB1 *0101
(§2) First copying reader's note: Continued from the preceding sheet of FIG. 1; decimal commas are used, the analog names give the substituted residues and positions in PADRE, and some values are printed in italics or bold and some SEQ ID NOs bold and underlined without a legend on this sheet.
Where the first naming reader finds the target: head: IC50nM to purified HLA | DRB1 *0101

The target of another test is HLA DRB1 *0401 (Homo sapiens, UniProt P01903+P01911, A100K/A169T/F76Y/I96L/K127E/L162R/M171V/N62H/P40V/Q125Y/R42H/S133A/S149N/S66Y/V115G/V209L/W38E). Kind of test: IC50nM to purified HLA | DRB1 *0401. The protocol:
as §1
Head of the field: IC50nM to purified HLA | DRB1 *0401
as §2
Where the first naming reader finds the target: head: IC50nM to purified HLA | DRB1 *0401

For the next test, the target named is HLA DRB1 *0404 (Homo sapiens, UniProt P01903+P01911, A100R/A169T/F76Y/I96L/K127E/L162R/M171V/N62H/P40V/Q125Y/R42H/S133A/S149N/S66Y/V209L/W38E). Kind of test: IC50nM to purified HLA | DRB1 *0404. How it is done: as §1
Head of the field: IC50nM to purified HLA | DRB1 *0404
as §2
Where the first naming reader finds the target: head: IC50nM to purified HLA | DRB1 *0404

The next test addresses HLA DRB1 *0901 (Homo sapiens, UniProt P01903+P01911, A100R/A103E/D57H/D86V/F55Y/F60I/F76Y/I96F/K127E/L162R/M171V/P40D/Q125H/Q99R/R33Q/R42F/S133A/S66N/T210M/V115G/W38K/Y107V/Y59G/Y89S). Kind of test: IC50nM to purified HLA | DRB1 *0901. How it is done:
as §1
Head of the field: IC50nM to purified HLA | DRB1 *0901
as §2
Where the first naming reader finds the target: head: IC50nM to purified HLA | DRB1 *0901

A further test addresses HLA DRB1 *1101 (Homo sapiens, UniProt P01903+P01911, A100R/A169T/A87E/I96F/K41T/L162R/M171V/P40S/Q125H/Q178H/Q39Y/Q99D/R42S/S66Y/T262R/V115G/W38E). Kind of test: IC50nM to purified HLA | DRB1 *1101. How it is done:
as §1
Head of the field: IC50nM to purified HLA | DRB1 *1101
as §2
Where the first naming reader finds the target: head: IC50nM to purified HLA | DRB1 *1101

For a further test, the target named is HLA DRB1 *1501 (Homo sapiens, UniProt P01903+P01911). Kind of test: IC50nM to purified HLA | DRB1 *1501. The protocol: as §1
Head of the field: IC50nM to purified HLA | DRB1 *1501
as §2
Where the first naming reader finds the target: head: IC50nM to purified HLA | DRB1 *1501

The next test addresses HLA DRB4 *0101 (Homo sapiens, UniProt P01903+P13762, G164S). Kind of test: IC50nM to purified HLA | DRB4 *0101. The protocol:
as §1
Head of the field: IC50nM to purified HLA | DRB4 *0101
as §2
Where the first naming reader finds the target: head: IC50nM to purified HLA | DRB4 *0101

The target of the next test is HLA DRB1 *0405 (Homo sapiens, UniProt P01903+P01911, A100R/A169T/D86S/F76Y/I96L/K127E/L162R/M171V/N62H/P40V/Q125Y/R42H/S133A/S149N/S66Y/V115G/V209L/W38E). Kind of test: IC50nM to purified HLA | DRB1 *0405. The protocol:
as §1
Head of the field: IC50nM to purified HLA | DRB1 *0405
as §2
Where the first naming reader finds the target: head: IC50nM to purified HLA | DRB1 *0405

The next test concerns the target HLA DRB1 *0701 (Homo sapiens, UniProt P01903+P01911, A100R/A102G/A103Q/D57E/D86V/E43K/F76Y/K127E/L162R/M171V/P40G/Q125H/Q99D/R33Q/R42Y/R54Q/S133A/S66F/T210M/V115G/Y107V/Y59L/Y89S). Kind of test: IC50nM to purified HLA | DRB1 *0701. How it is done: as §1
Head of the field: IC50nM to purified HLA | DRB1 *0701
as §2
Where the first naming reader finds the target: head: IC50nM to purified HLA | DRB1 *0701

Another test addresses HLA DRB1 *1302 (Homo sapiens, UniProt P01903+P01911, A100E/A169T/K41T/L162R/M171V/P40S/Q125H/Q178H/Q39Y/Q99D/R42S/S66N/T262R/V115G/W38E/Y61H). Kind of test: IC50nM to purified HLA | DRB1 *1302. How it is done: as §1
Head of the field: IC50nM to purified HLA | DRB1 *1302
as §2
Where the first naming reader finds the target: head: IC50nM to purified HLA | DRB1 *1302

For the next test, the target named is HLA DRB1 *0301 (Homo sapiens, UniProt P01903+P01911, A100K/A102G/A103R/A169T/F55Y/I96L/K41T/L162R/M171V/P40S/Q125H/Q178H/Q39Y/R42S/S66N/T106N/T262R/W38E/Y61H). Kind of test: IC50nM to purified HLA | DRB1 *0301. The protocol: as §1
Head of the field: IC50nM to purified HLA | DRB1 *0301
as §2
Where the first naming reader finds the target: head: IC50nM to purified HLA | DRB1 *0301

In a further test the target is HLA DRB1 *0802 (Homo sapiens, UniProt P01903+P01911, A100R/A103L/A169T/F76Y/H45Y/I96F/K41T/L162R/M171V/P40S/Q125H/Q178H/Q39Y/Q99D/R218S/R42G/S66Y/V115G/W38E). Kind of test: IC50nM to purified HLA | DRB1 *0802. How it is done: as §1
Head of the field: IC50nM to purified HLA | DRB1 *0802
as §2
Where the first naming reader finds the target: head: IC50nM to purified HLA | DRB1 *0802

Another test addresses HLA DRB5 *0101 (Homo sapiens, UniProt P01903+Q30154). Kind of test: IC50nM to purified HLA | DRB5 *0101. The protocol: as §1
Head of the field: IC50nM to purified HLA | DRB5 *0101
as §2
Where the first naming reader finds the target: head: IC50nM to purified HLA | DRB5 *0101

Sequence of HLA DRB1 *1101 (P01903 26-254 limits assumed, other chains not shown): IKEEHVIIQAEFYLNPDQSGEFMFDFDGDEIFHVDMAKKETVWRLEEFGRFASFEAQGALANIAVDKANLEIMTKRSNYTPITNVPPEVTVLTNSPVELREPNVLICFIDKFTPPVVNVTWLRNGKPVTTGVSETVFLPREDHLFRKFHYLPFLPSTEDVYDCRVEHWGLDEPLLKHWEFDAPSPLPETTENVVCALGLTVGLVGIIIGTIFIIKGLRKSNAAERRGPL
Sequence of HLA DRB4 *0101 (P01903 26-254 limits assumed): as the sequence (P01903 26-254 limits assumed, other chains not shown) above
Sequence of HLA DRB4 *0101 (P13762 whole entry G164S): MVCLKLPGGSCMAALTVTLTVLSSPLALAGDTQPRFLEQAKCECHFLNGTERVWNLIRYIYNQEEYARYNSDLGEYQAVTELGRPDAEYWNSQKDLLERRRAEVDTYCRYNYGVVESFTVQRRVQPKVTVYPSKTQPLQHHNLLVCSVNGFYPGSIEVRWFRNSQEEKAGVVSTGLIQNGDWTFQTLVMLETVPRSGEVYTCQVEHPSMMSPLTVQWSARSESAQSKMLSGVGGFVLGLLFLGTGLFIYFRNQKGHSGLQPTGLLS
Sequence of HLA DRB1 *1302 (P01903 26-254 limits assumed, other chains not shown): as the sequence (P01903 26-254 limits assumed, other chains not shown) above
Sequence of HLA DRB1 *0301 (P01903 26-254 limits assumed, other chains not shown): as above

With AAAHFVAAFTLKADA [SEQ ID NO: 33], the IC50 against HLA DRB1 *0101 stood at 6.7 nM; against HLA DRB1 *0401, 15 nM; against HLA DRB1 *0404, 9.5 nM; at HLA DRB1 *0901, 30 nM; against HLA DRB1 *1101, 76 nM; against HLA DRB1 *1501 it was 37 nM. The IC50 at HLA DRB4 *0101 turned out to be 948 nM; at HLA DRB1 *0405, 19 nM; against HLA DRB1 *0701, 83 nM; against HLA DRB1 *1302, 594 nM.
AAAEFVAAWTLHAAA [SEQ ID NO: 46]: the IC50 on HLA DRB1 *0301 is 134 nM; against HLA DRB1 *0401, 3.1 nM; at HLA DRB1 *0404, 4.1 nM; at HLA DRB1 *0802, 24 nM; on HLA DRB1 *0901, 44 nM; at HLA DRB1 *1101, 38 nM. Further, the IC50 worked out at 27 nM against HLA DRB1 *0405, 97 nM against HLA DRB1 *0701, 1150 nM against HLA DRB1 *1302 and 48 nM against HLA DRB5 *0101.
AAAHFVAAYTLKADA [SEQ ID NO: 32]: the IC50 against HLA DRB1 *0101 was 5.4 nM; at HLA DRB1 *0401 it was 11 nM; at HLA DRB1 *0404 it was 9.6 nM; at HLA DRB1 *0901, 31 nM; at HLA DRB1 *1501, 11 nM; against HLA DRB1 *0701 it was 48 nM. The sequence also yielded an IC50 at HLA DRB5 *0101 of 17 nM.
For AAAEFVAAFTLHAAA [SEQ ID NO: 48], the IC50 at HLA DRB1 *0101 was found to be 6.1 nM; against HLA DRB1 *0401 it was 2.1 nM; against HLA DRB1 *0404 it was 2.6 nM; against HLA DRB1 *0802 it was 19 nM; against HLA DRB1 *0901, 18 nM; at HLA DRB1 *1101, 48 nM. Further, the IC50 against HLA DRB1 *1501 came out at 50 nM; against HLA DRB4 *0101, 132 nM; against HLA DRB1 *0405 it was 14 nM; against HLA DRB1 *0701 it was 140 nM; against HLA DRB1 *1302, 2020 nM.
For AAAHFVAANTLKADA [SEQ ID NO: 34], the IC50 at HLA DRB1 *0301 was determined as 3120 nM; against HLA DRB1 *0401, 21 nM; at HLA DRB1 *0404, 13 nM; at HLA DRB1 *0802, 67 nM; against HLA DRB1 *0901, 60 nM; on HLA DRB1 *1101, 91 nM. The IC50 against HLA DRB1 *1501 turned out to be 172 nM; against HLA DRB1 *0405 it was 36 nM; against HLA DRB1 *0701, 88 nM; at HLA DRB5 *0101, 18 nM.
As for AAADFVAAWTLKAAA [SEQ ID NO: 40], the IC50 at HLA DRB1 *0101 came to 7 nM; against HLA DRB1 *0301, 330 nM; against HLA DRB1 *0401, 5.1 nM; against HLA DRB1 *0404, 4 nM; against HLA DRB1 *0802 it was 17 nM; on HLA DRB1 *1101, 19 nM. The IC50 on HLA DRB1 *1501 amounted to 64 nM; at HLA DRB4 *0101, 1540 nM; on HLA DRB1 *0405, 30 nM; at HLA DRB1 *0701, 195 nM; at HLA DRB1 *1302, 4000 nM.
In the case of AAADFVAAFTLHAAA [SEQ ID NO: 43], the IC50 against HLA DRB1 *0101 came out at 7.3 nM; on HLA DRB1 *0301, 746 nM; against HLA DRB1 *0401, 4.7 nM; against HLA DRB1 *0404, 3.7 nM; against HLA DRB1 *1101, 44 nM; on HLA DRB1 *1501 it was 97 nM. Besides, the IC50 was found to be 1050 nM against HLA DRB4 *0101, 11 nM on HLA DRB1 *0405 and 223 nM on HLA DRB1 *0701.
On to AAAEFVAAYTLHAAA [SEQ ID NO: 47], for which the IC50 against HLA DRB1 *0101 worked out at 3.9 nM; at HLA DRB1 *0301, 144 nM; against HLA DRB1 *0401 it was 2.3 nM; on HLA DRB1 *0404 it was 3.2 nM; against HLA DRB1 *0802 it was 13 nM; against HLA DRB1 *0901, 28 nM. In addition, the IC50 stood at 27 nM at HLA DRB1 *1101; 6.9 nM against HLA DRB1 *1501; 448 nM at HLA DRB4 *0101; 17 nM at HLA DRB1 *0405; 161 nM against HLA DRB1 *0701; 1450 nM against HLA DRB1 *1302. The sequence further yielded an IC50 against HLA DRB5 *0101 of 52 nM.
As to AAADFVAANTLHAAA [SEQ ID NO: 44], the IC50 against HLA DRB1 *0101 came to 7.8 nM; on HLA DRB1 *0301, 731 nM; at HLA DRB1 *0401, 6.6 nM; on HLA DRB1 *0404, 8.6 nM; on HLA DRB1 *0802 it was 44 nM; on HLA DRB1 *0901 it was 82 nM. The IC50 against HLA DRB1 *1501 came to 580 nM; at HLA DRB1 *0701, 196 nM; against HLA DRB1 *1302 it was 187 nM; on HLA DRB5 *0101, 80 nM.
